# Source: patent US10590166B2, “Peptides useable for treating cancer” (Allegro Pharmaceuticals, LLC, priority 2009, dated 2020)
# “And” between values parts separate entries of the source, which are not always exact repeats. Equal entries are not always repeated. Where two headings read alike, the source gives them in different places. Square brackets hold non-standard residues; d marks the D form. Peptide text beside a SMILES is read from it. Cya = N[CH](CS(=O)(=O)O)C(=O)O
# Assays:
# [1] = test system: Pigmented New Zealand Rabbits; test: Ocular toxicity dose escalation, multiple intravitreal injections of Compound 1 (Table E); format: in vivo; settings: up to 3 intravitreal injections of 2.5, 5.0 or 10.0 mg/100 μL
# rho/VEGF mice = test: Subretinal neovascularization in transgenic rho/VEGF mice expressing human VEGF; format: in vivo; settings: 25 μg, single intraocular injection, seven days post-dose, 3 animals
# Procedure: Transgenic mice in which the rhodopsin promoter drives expression of human VEGF in photoreceptors (rho/VEGF mice) were randomized into separate treatment groups and studies were performed to provide the following comparisons:
# Pretreatment measurements of the area of subretinal neovascularization were made on each animal using image analysis by a masked observer. Each animal received its designated treatment in a single intraocular injection. Seven days post-dose, measurements of the area of subretinal neovascularization were again made and compared to the pre-dose measurements to determine the change in subretinal neovascularization area. Also, the animals were sacrificed and the retinas were dissected, immunostained with GSA lectin and examined by fluorescence microscopy.
# New Zealand Rabbits = test: Ocular toxicity of intravitreal Compound 1 with and without urea (Table A); format: in vivo; settings: 24 hour follow up
# [2] = test system: human umbilical vein endothelial cells (HUVEC); test: wound-healing assay with HUVEC on fibronectin coated surface; format: cell-based
# Procedure: To test the anti-adhesive properties of RGCysteic Acid peptides in vitro, a wound-healing assay was performed with human umbilical vein endothelial cells (HUVEC). HUVEC were seeded and allowed to grow to a confluent monolayer on a fibronectin coated surface. A wound (a scratch rift) was created by dragging a small pipette tip across the HUVEC monolayer. The cells were then incubated in fresh growth medium containing the RGCysteic Acid peptide (Compound 1; 10 mM), and the wound area was imaged in five different fields at various time points (0, 4, 8, 12, 16, 20, 24 hours) to determine the kinetics of wound closure. The level of wound closure was quantified by determining the fraction of the original wound area that was re-occupied by HUVEC through cellular adhesion, migration and proliferation.
# In control studies, the following peptides were used in place of RGCysteic Acid (Compound 1): cyclic-RGD peptide (1 mM), positive control) and RGE peptide (1 mM, negative control).
# The results are shown as a percentage of the original area. The error bars correspond to the standard deviation in wound size across 2-6 independent trials.
# [3] = test system: human subjects with diabetic macular edema; format: in vivo; settings: for persistence of improvements in BCVA and OCT central macular thickness off treatment: follow up after the last intravitreal treatment
# Procedure: Fifteen human patients with late stage DME received three monthly intravitreal injections of Compound 1 as part of a multiple-injection Phase 1 Human Safety Study. […] While this study was firstly a safety study, efficacy was also assessed. Eight of the patients patients improved three or more lines in BCVA (representing 53% of the treated patients) and four of the patients improved from nearly legally blind to functional vision in the 20/40 to 20/60 range. […] These improvements in BCVA and OCT central macular thickness persisted for 90 days of follow up off treatment.
# The objective of the Phase 1 study was to evaluate the safety and initial efficacy of the ophthalmic intravitreal injection of COMPOUND 1 in human subjects with end stage diabetic macular edema (DME). The primary endpoint of this study was the observation of dose limiting toxicity. A secondary endpoint of this study was observation of a clinical benefit in reducing the diabetic macular edema in BCVA (ETDRS lines) and OCT central macular thickness.
# Fifteen human subjects with chronic end-stage DME completed this open label study. Subjects at enrollment had BCVA of 20/100 or worse primarily due to DME and had not undergone anti-VEGF treatment or focal laser within 90 days prior to enrollment. Many study subjects were refractory to previous Avastin treatments. Study subjects received three monthly intravitreal injections of 2.5 mg COMPOUND 1 and were followed monthly for an additional 3 months. Safety measurements were followed by BCVA, slit lamp evaluation, dilated fundus exam, 10P measurements, OCT, FA, Fundus Photos, B-scan ultrasound, and ERG.
# [4] = test system: ischemic retinopathy mouse model; test: ROP / ischemic retinopathy mouse model, pre-retinal neovascularization; format: in vivo
# Procedure: In this Example, Compound 1 was tested in an ischemic retinopathy mouse model to explore the feasibility of suppressing pre-retinal neovascularization.
# Mice that had ischemic retinopathy were injected intravitreously with a single dose of Compound 1 at the concentration of 0.125 μg/1 μL, 12.5 μg/1 μL, 25.0 μg/1 μL and at 50.0 μg/1 μL (Groups B, D, F and H, respectively), as well as a vehicle (BSS) (Controls 1, 2, 3 and 4) on post-natal day 12. On post-natal day 17, 5 days after intravitreal injection, the area of neovascularization was measured by image analysis. FIG. 9 is a bar graph comparing the measured area of neovascularization in mice treated with these varying doces of compound 1 or control (vehicle only).
# [5] = single intravitreal 2.5 mg/100 μL
# [6] = single intravitreal injection, 8 eyes per group
# [7] = 15 DME patients, three monthly intravitreal injections of 2.5 mg
# [8] = 15 DME patients, three monthly intravitreal injections of 2.5 mg, listed as COMPOUND 1
smiles,measurement,setting,value
"CC(O)C(NC(=O)C(CS(=O)(=O)O)NC(=O)CNC(=O)C(CCCNC(=N)N)NC(=O)CN)C(=O)N1CCCC1C(=O)O (centres unmarked) [Compound 1, Glycinyl-Arginyl-Glycinyl-Cysteic-Threonyl-Proline-COOH] (H-GRG[Cya]TP-OH; configuration not given here)","Tonometry, average for treated eyes",[1],12.7 mmHg average
same,Ocular toxicity: RPE toxicity,"[1]; sacrifice Day 7, 37 or 90",No RPE toxicity
same,Ocular toxicity: cataract formation,"[1]; sacrifice Day 7, 37 or 90",No cataract
same,Ocular toxicity: exudates,"[1]; sacrifice Day 7, 37 or 90",No exudates
same,Ocular toxicity: inflammation,"[1]; sacrifice Day 7, 37 or 90",No inflammation
same,Ocular toxicity: retinal hemorrhage,"[1]; sacrifice Day 7, 37 or 90",No retinal
same,"Ocular toxicity: retinal tears, breaks or detachments","[1]; sacrifice Day 7, 37 or 90","No retinal tears,"
same,Ocular toxicity: retinal vascular compromise,"[1]; sacrifice Day 7, 37 or 90",No retinal vascular
same,greater reduction in subretinal neovascularization area than control animals (Phosphate Buffered Saline),rho/VEGF mice,37.06%
same,Ocular toxicity: RPE toxicity,New Zealand Rabbits; [5],No RPE toxicity
same,Ocular toxicity: cataract formation,New Zealand Rabbits; [5],No cataract
same,Ocular toxicity: exudates,New Zealand Rabbits; [5],No exudates
same,Ocular toxicity: inflammation,New Zealand Rabbits; [5],No inflammation
same,Ocular toxicity: retinal hemorrhage,New Zealand Rabbits; [5],No retinal
same,"Ocular toxicity: retinal tears, breaks or detachments",New Zealand Rabbits; [5],"No retinal tears,"
same,Ocular toxicity: retinal vascular compromise,New Zealand Rabbits; [5],No retinal
same,Total PVD,New Zealand Rabbits; [6],75% Total PVD
same,Vitreous liquefaction,New Zealand Rabbits; [6],Complete
same,inhibition of cell adhesion,"[2]; HUVEC wound healing model, in 12 hours",74%
same,inhibition of HUVEC wound healing,"[2]; after 24 hours, Compound 1 10 mM, control peptides 1 mM",70%
same,apoptosis of the HUVEC cells,[2]; wound healing assay,without apoptosis
same,number of patients with no material increase in CMT,[3]; 15 DME patients,7 out of 15 patients
same,number of subjects with no material change in BCVA,[3]; 15 DME patients,7 out of 15 subjects
same,share of treated patients improved three or more lines in BCVA,"[3]; 15 DME patients, by study day 90 after 3 intravitreal injections of 2.5 mg",53%
same,number of patients improved from nearly legally blind to functional vision in the 20/40 to 20/60 range,"[3]; 15 DME patients, three monthly intravitreal injections",four
same,number of patients with reduction in CMT by 30% to 80%,[3]; [7],eight
same,number of subjects improved BCVA by three or more (three to five) lines,[3]; [7],Eight
same,share of subjects with reduction in OCT central macular thickness of at least 30%,[3]; [7],53%
same,number of patients with reduction in CMT by 30% to 80%,[3]; [8],8 out of 15 and 8 of 15 patients
same,number of subjects improved BCVA by three or more (three to five) lines,[3]; [8],8 out of 15 and 8 of 15 subjects
same,maximum reduction in macular edema (OCT),[3]; 608 to 103,505 microns
same,"maximum reduction in macular edema (OCT), relative",[3]; 608 to 103 microns,~80%
same,persistence of improvements in BCVA and OCT central macular thickness off treatment,[3],90 days
same,persistence of improvements in BCVA and OCT central macular thickness off treatment,[3]; listed as COMPOUND 1,at least 90 days
same,ERG changes,[3]; in vivo,No ERG changes
same,corneal decompensation or cataract progression,[3]; in vivo,No corneal decompensation or cataract progression
same,elevations in IOP,[3]; in vivo,No sustained elevations in IOP
same,inflammatory reactions in the anterior chamber or vitreous cavity,[3]; in vivo,no reports of inflammatory reactions
same,retinal tears or retinal detachments,[3]; in vivo,No retinal tears or retinal detachments
same,vascular occlusions,[3]; in vivo,no vascular occlusions
same,size of neovascularization lesions,"[4]; Group B, single intravitreal 0.125 μg/1 μL on post-natal day 12, measured day 17",somewhat smaller
same,size of neovascularization lesions,"[4]; Group D, single intravitreal 12.5 μg/1 μL on post-natal day 12, measured day 17, statistically significant vs control",greatly decreased
same,size of neovascularization lesions,"[4]; Group F, single intravitreal 25.0 μg/1 μL on post-natal day 12, measured day 17, statistically significant vs control",greatly decreased
same,size of neovascularization lesions,"[4]; Group H, single intravitreal 50.0 μg/1 μL on post-natal day 12, measured day 17, statistically significant vs control",greatly decreased
